System: 292921-168-R-J2-PDC KRAS tumor spheroid viability
Assay: Anticancer human tumor 292921-168-R-J2-PDC patient-derived pancreatic carcinoma cell line growth inhibition [KRAS2]
Details: spheroids with HUVEC and MSC; for IC50: curve of first compound; for viability, T/C: stronger effect = lower value; active means viability on the fitted dose curve at most 10% of control; inactive means the rest
Method in brief: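 Combination screen of spheroid viability in tumor-cell co-cultures with endothelial (HUVEC) and mesenchymal stem cell stroma. Each agent was tested in half-log dilutions, topping at clinical Cmax or at 10 microM without a known Cmax.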

[1] = second compound 0.1 µM, first compound 0.0316 µM
[2] = second compound 0.1 µM, first compound 0.1 µM
[3] = second compound 0.1 µM, first compound 0.316 µM
[4] = second compound 0.1 µM, first compound 1 µM
[5] = second compound 0.1 µM, first compound 3.16 µM
[6] = second compound 0.1 µM, first compound 10 µM
[7] = second compound 0.316 µM, first compound 0.0316 µM
[8] = second compound 0.316 µM, first compound 0.1 µM
[9] = second compound 0.316 µM, first compound 0.316 µM
[10] = second compound 0.316 µM, first compound 1 µM
[11] = second compound 0.316 µM, first compound 3.16 µM
[12] = second compound 0.316 µM, first compound 10 µM
[13] = second compound 1 µM, first compound 0.0316 µM
[14] = second compound 1 µM, first compound 0.1 µM
[15] = second compound 1 µM, first compound 0.316 µM
[16] = second compound 1 µM, first compound 1 µM
[17] = second compound 1 µM, first compound 3.16 µM
[18] = second compound 1 µM, first compound 10 µM
[19] = second compound 3.16 µM, first compound 0.0316 µM
[20] = second compound 3.16 µM, first compound 0.1 µM
[21] = second compound 3.16 µM, first compound 0.316 µM
[22] = second compound 3.16 µM, first compound 1 µM
[23] = second compound 3.16 µM, first compound 3.16 µM
[24] = second compound 3.16 µM, first compound 10 µM
[25] = second compound 10 µM, first compound 0.0316 µM
[26] = second compound 10 µM, first compound 0.1 µM
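Further: drug exposure lasted seven days after spheroids formed for three days.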
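Wherever viability, T/C is given: percent of DMSO vehicle control viability which is 100%.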

COc1cc2nccc(Oc3ccc(NC(=O)C4(C(=O)Nc5ccc(F)cc5)CC4)cc3)c2cc1OC + CC1OCC2(CCN(c3cnc(Sc4ccnc(N)c4Cl)c(N)n3)CC2)C1N
1610 nM: IC50 (second compound 0.1 µM)
< 31.6 nM: IC50 (second compound 1 µM) | IC50 (second compound 3.16 µM) | IC50 (second compound 10 µM)
569 nM: IC50 (second compound 0.316 µM)
inactive: viability, T/C [1] 81% | viability, T/C [2] 82.6% | viability, T/C [3] 72% | viability, T/C [4] 65.9% | viability, T/C [5] 28.9% | viability, T/C [6] 19% | viability, T/C [7] 60.9% | viability, T/C [8] 61.4% | viability, T/C [9] 54.6% | viability, T/C [10] 45.1% | viability, T/C [11] 25.6% | viability, T/C [12] 17.1% | viability, T/C [13] 42.2% | viability, T/C [14] 45.7% | viability, T/C [15] 26.1% | viability, T/C [16] 33% | viability, T/C [17] 22.5% | viability, T/C [18] 13% | viability, T/C [19] 35.4% | viability, T/C [20] 33.5% | viability, T/C [21] 35.5% | viability, T/C [22] 26.8% | viability, T/C [23] 17.8% | viability, T/C [24] 12% | viability, T/C [25] 31.7% | viability, T/C [26] 30.2% | viability, T/C (second compound 10 µM, first compound 0.316 µM) 31.7% | viability, T/C (second compound 10 µM, first compound 1 µM) 24.9% | viability, T/C (second compound 10 µM, first compound 3.16 µM) 14.3%
active: viability, T/C (second compound 10 µM, first compound 10 µM) 9.5%

O=C(c1cc(Cc2n[nH]c(=O)c3ccccc23)ccc1F)N1CCN(C(=O)C2CC2)CC1 + C=CC(=O)N1CCN(c2nc(OCC3CCCN3C)nc3c2CCN(c2cccc4cccc(C)c24)C3)CC1CC#N
< 31.6 nM: IC50 (second compound 1 µM) | IC50 (second compound 3.16 µM)
inactive: viability, T/C (second compound 0.0316 µM, first compound 0.0316 µM) 102% | viability, T/C (second compound 0.0316 µM, first compound 0.1 µM) 101% | viability, T/C (second compound 0.0316 µM, first compound 0.316 µM) 102% | viability, T/C (second compound 0.0316 µM, first compound 1 µM) 85.1% | viability, T/C (second compound 0.0316 µM, first compound 3.16 µM) 62% | viability, T/C (second compound 0.0316 µM, first compound 10 µM) 38.8% | viability, T/C [1] 88.3% | viability, T/C [2] 68.2% | viability, T/C [3] 84.5% | viability, T/C [4] 75.6% | viability, T/C [5] 68.5% | viability, T/C [6] 36.3% | viability, T/C [7] 50.5% | viability, T/C [8] 56.1% | viability, T/C [9] 55.2% | viability, T/C [10] 62.7% | viability, T/C [11] 50.2% | viability, T/C [12] 30.8% | viability, T/C [13] 42.9% | viability, T/C [14] 43.5% | viability, T/C [15] 38.1% | viability, T/C [16] 34.3% | viability, T/C [17] 43.3% | viability, T/C [18] 19.7%
5670 nM: IC50 (second compound 0.0316 µM)
6110 nM: IC50 (second compound 0.1 µM)
active: viability, T/C [19] 0.21% | viability, T/C [20] 0.17% | viability, T/C [21] 0.19% | viability, T/C [22] 0.49% | viability, T/C [23] 0.32% | viability, T/C [24] 0.25%
3560 nM: IC50 (second compound 0.316 µM)

CC(C)n1nc(-c2ccc3oc(N)nc3c2)c2c(N)ncnc21 + CC1OCC2(CCN(c3cnc(Sc4ccnc(N)c4Cl)c(N)n3)CC2)C1N
< 0.316 nM: IC50 (second compound 0.316 µM) | IC50 (second compound 1 µM) | IC50 (second compound 3.16 µM) | IC50 (second compound 10 µM)
inactive: viability, T/C (second compound 0.1 µM, first compound 0.000316 µM) 66.5% | viability, T/C (second compound 0.1 µM, first compound 0.001 µM) 51.4% | viability, T/C (second compound 0.1 µM, first compound 0.00316 µM) 35.4% | viability, T/C (second compound 0.1 µM, first compound 0.01 µM) 29.4% | viability, T/C [1] 20.8% | viability, T/C [2] 19.1% | viability, T/C (second compound 0.316 µM, first compound 0.000316 µM) 48.7% | viability, T/C (second compound 0.316 µM, first compound 0.001 µM) 38.5% | viability, T/C (second compound 0.316 µM, first compound 0.00316 µM) 30.5% | viability, T/C (second compound 0.316 µM, first compound 0.01 µM) 21.6% | viability, T/C [7] 18.4% | viability, T/C [8] 16.6% | viability, T/C (second compound 1 µM, first compound 0.000316 µM) 44% | viability, T/C (second compound 1 µM, first compound 0.001 µM) 36.4% | viability, T/C (second compound 1 µM, first compound 0.00316 µM) 26.1% | viability, T/C (second compound 1 µM, first compound 0.01 µM) 19.3% | viability, T/C [13] 17.4% | viability, T/C [14] 14.5% | viability, T/C (second compound 3.16 µM, first compound 0.000316 µM) 32.3% | viability, T/C (second compound 3.16 µM, first compound 0.001 µM) 28.3% | viability, T/C (second compound 3.16 µM, first compound 0.00316 µM) 23.7% | viability, T/C (second compound 3.16 µM, first compound 0.01 µM) 16.6% | viability, T/C [19] 14.9% | viability, T/C [20] 12.5% | viability, T/C (second compound 10 µM, first compound 0.000316 µM) 27.2% | viability, T/C (second compound 10 µM, first compound 0.001 µM) 27.8% | viability, T/C (second compound 10 µM, first compound 0.00316 µM) 20.1% | viability, T/C (second compound 10 µM, first compound 0.01 µM) 17% | viability, T/C [25] 12.8% | viability, T/C [26] 11.3%
1.06 nM: IC50 (second compound 0.1 µM)

Reference: PubChem BioAssay AID1963870 (Molecular Pharmacology Branch, DTP, NCI, 2024)
